The source of these data is PubChem BioAssay AID1963448 (Molecular Pharmacology Branch, DTP, NCI, 2024).

Molecules are shown by their SMILES. Several values for one entry are separate records, joined by “and”; a condition that tells them apart may be missing. Equal values may be shown once. Where only a bound is given, the exact number is not on record here.

This experiment deals with 616215-338-R-J1-PDC complex spheroid growth, % test/control. The experiment is described as follows: Anticancer human tumor 616215-338-R-J1-PDC patient-derived colon adenocarcinoma cell line growth inhibition [Asc]. Particulars: for viability, T/C: stronger effect = lower value. Put shortly:
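Stromal components (HUVEC and hMSC) are co-assembled with the cancer cells into multicellular spheroids. Drugs are then added singly or paired, at concentrations falling by half-log increments from a clinically achievable maximum, capped at 10 microM without known Cmax.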
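Further: spheroids exposed to agents for seven days before readout.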
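Wherever viability, T/C is given: 100% = DMSO vehicle control viability.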

Consider `COc1c(OCCCN2CCOCC2)ccc2c3n(c(=NC(=O)c4cnc(N)nc4)nc12)CCN3` + CNC(C)C(=O)NC1CN(S(=O)(=O)c2cccc(S(=O)(=O)N3CCC4CCC(C(=O)NC(c5ccccc5)c5ccccc5)N4C(=O)C(NC(=O)C(C)NC)C3)c2)CCC2CCC(C(=O)NC(c3ccccc3)c3ccccc3)N2C1=O, for which the IC50 was found to be 0.0533 µM (curve of first compound, second compound 0.00316 µM); 0.0549 µM (curve of first compound, second compound 0.01 µM); 0.047 µM (curve of first compound, second compound 0.0316 µM); 0.0464 µM (curve of first compound, second compound 0.1 µM); 0.0524 µM (curve of first compound, second compound 0.316 µM); 0.0403 µM (curve of first compound, second compound 1 µM). Also, the viability, T/C runs as follows: (second compound 0.00316 µM, first compound 0.00316 µM) 107%; (second compound 0.00316 µM, first compound 0.01 µM) 83.5%; (second compound 0.00316 µM, first compound 0.0316 µM) 68.8%; (second compound 0.00316 µM, first compound 0.1 µM) 30.4%; (second compound 0.00316 µM, first compound 0.316 µM) 14.9%; (second compound 0.00316 µM, first compound 1 µM) 2.9%. Also, the viability, T/C is 98.6% (second compound 0.01 µM, first compound 0.00316 µM); 101% (second compound 0.01 µM, first compound 0.01 µM); 64% (second compound 0.01 µM, first compound 0.0316 µM); 32.5% (second compound 0.01 µM, first compound 0.1 µM); 9.38% (second compound 0.01 µM, first compound 0.316 µM); 2.23% (second compound 0.01 µM, first compound 1 µM). The viability, T/C (second compound 0.0316 µM, first compound 0.00316 µM) was 94.1%; the viability, T/C (second compound 0.0316 µM, first compound 0.01 µM) is 97.8%; the viability, T/C (second compound 0.0316 µM, first compound 0.0316 µM) was 59.5%; the viability, T/C (second compound 0.0316 µM, first compound 0.1 µM) was 26.1%; the viability, T/C (second compound 0.0316 µM, first compound 0.316 µM) is 14.3%; the viability, T/C (second compound 0.0316 µM, first compound 1 µM) was 1.77%. Further, the viability, T/C is, setting by setting: (second compound 0.1 µM, first compound 0.00316 µM) 101%; (second compound 0.1 µM, first compound 0.01 µM) 92.4%; (second compound 0.1 µM, first compound 0.0316 µM) 56.7%; (second compound 0.1 µM, first compound 0.1 µM) 30.4%; (second compound 0.1 µM, first compound 0.316 µM) 14.1%; (second compound 0.1 µM, first compound 1 µM) 1.87%. The viability, T/C was 93.4% (second compound 0.316 µM, first compound 0.00316 µM); 97.8% (second compound 0.316 µM, first compound 0.01 µM); 65.1% (second compound 0.316 µM, first compound 0.0316 µM); 27.7% (second compound 0.316 µM, first compound 0.1 µM); 15.3% (second compound 0.316 µM, first compound 0.316 µM); 3.07% (second compound 0.316 µM, first compound 1 µM). The viability, T/C was 87.4% (second compound 1 µM, first compound 0.00316 µM); 89.4% (second compound 1 µM, first compound 0.01 µM); 52.8% (second compound 1 µM, first compound 0.0316 µM); 26.8% (second compound 1 µM, first compound 0.1 µM); 16.8% (second compound 1 µM, first compound 0.316 µM); 6.17% (second compound 1 µM, first compound 1 µM).

`C=C(F)C(=O)N1CCN(c2nc(OCC3CCCN3C)nc3c2CCN(c2cccc4cccc(Cl)c24)C3)CC1CC#N` (stereo not given): the viability, T/C runs as follows: (compound 0.0316 µM) 75.3% and 90.8% and 99.4%; (compound 0.1 µM) 72.6% and 95.6% and 102%; (compound 0.316 µM) 59.3% and 97.8% and 100%; (compound 1 µM) 38.8% and 98.2% and 107%; (compound 10 µM) 0.82% and 0.6% and 0.47%.

As for `O=C(c1cc(Cc2n[nH]c(=O)c3ccccc23)ccc1F)N1CCN(C(=O)C2CC2)CC1`, the viability, T/C was 97.1% and 97.4% and 112% (compound 0.0316 µM); 99.8% and 94.7% and 98.3% (compound 0.1 µM); 97.7% and 99.4% and 100% (compound 0.316 µM); 96.5% and 94.7% and 99.3% (compound 1 µM); 96.8% and 106% and 90.6% (compound 3.16 µM); 91.1% and 90.2% and 89.1% (compound 10 µM). Besides, the IC50 (curve of compound) is over 10 µM.

As for `NC(=O)C(=Cn1cnc(-c2cc(C(F)(F)F)cc(C(F)(F)F)c2)n1)c1cncnc1`, the viability, T/C by setting is: (compound 0.000949 µM) 97.1% and 89.2% and 43.2%; (compound 0.003 µM) 96.8% and 85% and 52.7%; (compound 0.00949 µM) 99.3% and 95.9% and 24.4%; (compound 0.03 µM) 100% and 86.7% and 29.2%; (compound 0.0949 µM) 95.2% and 81.8% and 20.7%; (compound 0.3 µM) 97.6% and 91.7% and 30.1%.

One may read the IC50 as the concentration that inhibits the measured activity by half. In general, viability, T/C refers to the result in the treated group divided by that in the control group, in per cent.
